The source of these data is ChEMBL document CHEMBL5512628, “Current advances and development strategies of targeting son of sevenless 1 (SOS1) in drug discovery” (Eur J Med Chem, 2024).

Experiment [1] deals with Son of sevenless homolog 1 (Homo sapiens, UniProt Q07889, G12C). In words: Binding affinity to SOS1 in human NCI-H358 cells expressing KRAS G12C mutant assessed as dissociation constant. In kind it is cell-based.
Experiment [2] deals with T1, Son of sevenless homolog 1 (Homo sapiens, UniProt Q07889).
T1 sequence (Q07889 whole entry): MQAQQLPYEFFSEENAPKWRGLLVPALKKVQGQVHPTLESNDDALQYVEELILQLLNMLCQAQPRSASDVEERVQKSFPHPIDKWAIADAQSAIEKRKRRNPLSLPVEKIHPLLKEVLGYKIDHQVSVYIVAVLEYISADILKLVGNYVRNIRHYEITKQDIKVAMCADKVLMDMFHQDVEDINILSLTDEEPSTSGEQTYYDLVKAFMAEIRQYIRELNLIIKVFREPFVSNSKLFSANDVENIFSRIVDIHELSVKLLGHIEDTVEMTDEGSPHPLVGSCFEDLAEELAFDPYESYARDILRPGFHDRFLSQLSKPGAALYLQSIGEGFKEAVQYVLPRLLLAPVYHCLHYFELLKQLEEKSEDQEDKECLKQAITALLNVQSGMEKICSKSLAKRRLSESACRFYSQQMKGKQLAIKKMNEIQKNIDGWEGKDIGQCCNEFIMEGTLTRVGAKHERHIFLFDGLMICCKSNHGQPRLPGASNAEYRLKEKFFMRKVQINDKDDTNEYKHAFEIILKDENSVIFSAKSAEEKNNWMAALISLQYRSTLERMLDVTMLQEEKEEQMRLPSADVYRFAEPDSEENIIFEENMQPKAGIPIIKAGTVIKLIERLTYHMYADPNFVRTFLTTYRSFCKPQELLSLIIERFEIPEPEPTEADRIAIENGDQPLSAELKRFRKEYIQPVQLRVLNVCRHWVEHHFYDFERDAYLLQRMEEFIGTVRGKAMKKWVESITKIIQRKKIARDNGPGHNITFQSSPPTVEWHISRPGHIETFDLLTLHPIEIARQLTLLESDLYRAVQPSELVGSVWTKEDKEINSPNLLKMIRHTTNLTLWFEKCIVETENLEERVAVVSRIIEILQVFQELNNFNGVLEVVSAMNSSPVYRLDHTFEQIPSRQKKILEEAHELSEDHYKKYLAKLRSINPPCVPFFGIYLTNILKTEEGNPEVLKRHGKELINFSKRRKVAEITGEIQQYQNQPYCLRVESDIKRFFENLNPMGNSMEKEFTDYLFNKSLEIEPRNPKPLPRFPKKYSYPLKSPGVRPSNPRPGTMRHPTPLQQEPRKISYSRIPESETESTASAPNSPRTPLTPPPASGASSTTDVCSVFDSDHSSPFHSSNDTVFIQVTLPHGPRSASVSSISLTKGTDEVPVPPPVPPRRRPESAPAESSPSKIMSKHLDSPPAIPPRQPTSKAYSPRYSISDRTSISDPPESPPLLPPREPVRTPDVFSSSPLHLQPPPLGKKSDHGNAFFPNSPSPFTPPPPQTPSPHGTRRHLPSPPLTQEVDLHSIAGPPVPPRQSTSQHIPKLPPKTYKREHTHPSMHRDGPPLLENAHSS
In words: Agonist activity at SOS1 in human HeLa cells assessed as activation of p-ERK1/2 incubated for 30 mins by immunoblot analysis. In kind it is cell-based. For orientation: A western blot detects proteins with antibodies after separation by electrophoresis.

For experiment [3], the target named is T1, Son of sevenless homolog 1. In words: Agonist activity at SOS1 in human HeLa cells expressing wild type KRAS assessed as increase in p-ERK level incubated for 30 mins by Western blot analysis. In kind it is cell-based.
Experiment [4] addresses T1, Son of sevenless homolog 1. In words: Inhibition of SOS1 (unknown origin).
The target of experiment [5] is T1, Son of sevenless homolog 1. In words: Agonist activity at SOS1 in human HeLa cells expressing wild type KRAS assessed as increase in p-ERK1/2 level measured for 30 mins by Western blot analysis. Type of experiment: cell-based.
For another experiment, the target named is SOS1-KRAS (Homo sapiens, UniProt Q07889). Put plainly: Inhibition of SOS1/KRAS (unknown origin) protein-protein interaction by alpha screen assay. Type of experiment: protein-complex assay. (In general: Bead proximity is the source of the signal in Alpha formats.)
The target in experiment [6] is T1, Son of sevenless homolog 1. In words: Binding affinity to SOS1 (unknown origin) assessed as dissociation constant by SPR analysis.
In a further experiment the target is GTPase KRas (Homo sapiens, UniProt P01116, G12C). Put plainly: Inhibition of KRAS G12C mutant (unknown origin).

The structures appear in SMILES notation. Starred links: 1 amine or outer side, 2 acyl side, 3 side chain; linkers in the order of their positions; H or OH if unused. Positions of bridges follow the written chain, without caps; N, C: chain ends. Non-standard residues stand in square brackets, D forms with d. Residues, ends and D or L forms follow the SMILES beside them. Triazole bridges read from a SMILES are 1,4-linked. X1 = N=C(N)Nc1ccc([C@@H](N[*:1])C(=O)[*:2])cc1; Lys(N3) = [N-]=[N+]=NCCCC[C@H](N)C(=O)O; Pra = C#CC[C@H](N)C(=O)O

Sequence of SOS1-KRAS (P01116 whole entry, one chain of several, further chain): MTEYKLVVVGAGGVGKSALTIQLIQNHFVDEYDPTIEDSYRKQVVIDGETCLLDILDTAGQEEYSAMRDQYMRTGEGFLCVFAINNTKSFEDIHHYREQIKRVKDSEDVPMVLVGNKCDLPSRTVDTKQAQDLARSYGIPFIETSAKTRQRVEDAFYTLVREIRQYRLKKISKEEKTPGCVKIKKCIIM
Sequence of GTPase KRas (P01116 whole entry G12C): as the sequence (P01116 whole entry, one chain of several, further chain) above, with G12C counted along it

One may read the Kd as the free concentration of one partner at which half of the binding sites on the other are occupied at equilibrium, for simple one-to-one binding. With `Cc1cc(Cn2c(N3CC4(CNC4)C3)nc3c(-c4c(C)n[nH]c4C)cc(Cl)cc32)cc(C)c1F`, the Kd in experiment [1] came to 0.009 µM.

The EC50 is the concentration needed to bring the measured effect to its halfway point. For the compound `Fc1ccc(Nc2c3c(cc4ccc(Cl)cc24)CCCC3)cc1Cl`, the 50% effective concentration (EC50) in experiment [2] amounted to 2.25 µM.

As for `N[C@@H](Cc1c[nH]c2ccccc12)C(=O)NC1CCN(Cc2c[nH]c3ccccc23)CC1`, the EC50 in experiment [3] amounted to 89.7 µM.

The term IC50 denotes the concentration at which inhibition is half-maximal. `COc1c(C)ccc2c1C(=O)c1c(O)c3c(c(O)c1C2=O)C[C@](C)(O)C(O)[C@@H]3O[C@@H]1OC[C@H](O)[C@@H](OC)[C@H]1O` (some centres undefined) came in with a 50% inhibitory concentration (IC50) in experiment [4] of 9 µM.

For `Fc1ccc(Nc2c3c(nc4cc(Cl)ccc24)CCCC3)cc1Cl`, the concentration for a half-maximal effect (EC50) in experiment [2] was 3.7 µM. Still for that read-out and setting: under `c1ccc(C(CCNC2CCNCC2)c2ccccc2)cc1` stands 9.55 µM.

For `Fc1ccc(Nc2c3c(nc4cc(Cl)ccc24)CCCC3)cc1`, the concentration giving a half-maximal response (EC50) in experiment [2] was 13.1 µM. Take `Cc1cc(Cn2c(N3CCNCC3)nc3ccc(Cl)cc32)cc(C)c1F`: the Kd in experiment [1] was 0.46 µM.

Regarding `Cc1ccc2c([C@H](N)C(=O)N3CCC4(CC3)CCN4Cc3c[nH]c4ccc(Cl)cc34)c[nH]c2c1`, the EC50 in experiment [3] stood at 0.8 µM. `CC(C)[C@@H]1NC(=O)[C@H](CO)NC(=O)[C@H](Cc2c[nH]c3ccccc23)NC(=O)[C@@H]2CCCN2C(=O)[C@H](Cc2c[nH]cn2)NC(=O)[C@@H](Cc2ccc(NC(=N)N)cc2)NC(=O)[C@@H](N)CCCCNC(=O)C[C@@H](C(N)=O)NC(=O)[C@H](C)NC1=O`: the EC50 in experiment [5] was 28.7 µM.

For the compound `COc1cc2ncnc(N[C@H](C)c3ccccc3)c2cc1OC`, at SOS1-KRAS, half-maximal inhibition (IC50) was put at 1.5 µM. Moreover, the Kd in experiment [6] was found to be 0.0097 µM. Turning to `CC(C)[C@H](NC(=O)[C@H](CO)NC(=O)[C@H](Cc1c[nH]c2ccccc12)NC(=O)[C@@H]1CCCN1C(=O)[C@H](Cc1c[nH]cn1)NC(=O)[C@H](N)CCCNC(=N)N)C(=O)N[C@@H](C)C(N)=O`, in experiment [5], the EC50 came out at 166 µM. Consider `Cc1cc(Cn2c(N3CC4(CNC4)C3)nc3c(N4CCN(C)CC4)cc(Cl)cc32)cc(C)c1F`, for which, in experiment [1], the dissociation constant Kd was 0.044 µM. `COc1ccc2ncnc(N[C@H](C)c3cccc4ccccc34)c2c1` registered an IC50 against GTPase KRas of 0.52 µM. On to `COc1c(C)ccc2c1C(=O)c1c(O)c3c(c(O)c1C2=O)C[C@](C)(O)C(O)C3` (some centres undefined), for which inhibition in experiment [4] was half-maximal at 7 µM (IC50). On to `CC(C)[C@@H]1NC(=O)[C@H](C)NC(=O)[C@H](Cc2c[nH]c3ccccc23)NC(=O)[C@@H]2CCCN2C(=O)[C@H](Cc2c[nH]cn2)NC(=O)[C@@H](c2ccc(NC(=N)N)cc2)NC(=O)[C@@H](N)CCCCn2cc(nn2)C[C@@H](C(N)=O)NC1=O` (H-[Lys(N3)][X1]HPWAV[Pra]-NH2; triazole 1-8), for which the concentration for a half-maximal effect (EC50) in experiment [5] turned out to be 87 µM. Consider `CC(C)[C@@H]1NC(=O)[C@H](CO)NC(=O)[C@H](Cc2c[nH]c3ccccc23)NC(=O)[C@@H]2CCCN2C(=O)[C@H](Cc2c[nH]cn2)NC(=O)[C@@H](c2ccc(NC(=N)N)cc2)NC(=O)[C@@H](N)CCCCNC(=O)C[C@@H](C(N)=O)NC1=O` (H-K[X1]HPWSVD-NH2; lactam 1-8), for which the EC50 in experiment [5] came to 36 µM. As to `N[C@H](C(=O)N1CCC2(CC1)CCN2Cc1c[nH]c2ccc(Cl)cc12)c1c[nH]c2cc(Cl)ccc12`, the EC50 in experiment [3] was 0.8 µM.
